Broadly, the IC50 is the point on the concentration scale where inhibition reaches its midpoint.

The structures appear in SMILES notation.

The source of these data is US10544143B2, “4-azaindole compounds” (BRISTOL-MYERS SQUIBB COMPANY, priority 2017, dated 2020).

Assay [1] addresses human TLR9 (Homo sapiens (Human), UniProt Q9NR96). Description: TLR9 inhibition reporter assay (HEK-Blue SEAP).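 Further: SEAP driven by an IFN-β minimal promoter with NF-κB and AP-1 sites, read after 22 h, compounds dosed 0.05 nM–50 µM, inhibition scaled between agonist plus DMSO and reference-inhibitor wells.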 The note with it: read-out: TLR9 IC50; HEK-Blue cells overexpressing human TLR9, ODN2006 5 nM stimulation, SEAP reporter. Background: Reporter assays use an easily measured gene product as a stand-in for the process of interest.
Assay [2] has as its target human TLR8 (Homo sapiens (Human), UniProt Q9NR97). Description: TLR8 inhibition reporter assay (HEK-Blue SEAP).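 Further: SEAP driven by IFN-β minimal promoter carrying NF-κB and AP-1 sites, compounds dosed 0.05 nM to 50 µM for 22 h, inhibition scaled between agonist-plus-DMSO and reference-inhibitor wells.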 The settings on record: read-out: TLR8 IC50; HEK-Blue cells overexpressing human TLR8, R848 15.9 μM stimulation, SEAP reporter.
Assay [3] has as its target human TLR7 (Homo sapiens (Human), UniProt Q9NYK1). The experiment in a line: TLR7 inhibition reporter assay (HEK-Blue SEAP). The format is cell-based. The note with it: HEK-Blue cells overexpressing human TLR7, gardiquimod 7.5 μM stimulation, SEAP reporter.

Sequence of human TLR8 (Q9NR97 27-1041): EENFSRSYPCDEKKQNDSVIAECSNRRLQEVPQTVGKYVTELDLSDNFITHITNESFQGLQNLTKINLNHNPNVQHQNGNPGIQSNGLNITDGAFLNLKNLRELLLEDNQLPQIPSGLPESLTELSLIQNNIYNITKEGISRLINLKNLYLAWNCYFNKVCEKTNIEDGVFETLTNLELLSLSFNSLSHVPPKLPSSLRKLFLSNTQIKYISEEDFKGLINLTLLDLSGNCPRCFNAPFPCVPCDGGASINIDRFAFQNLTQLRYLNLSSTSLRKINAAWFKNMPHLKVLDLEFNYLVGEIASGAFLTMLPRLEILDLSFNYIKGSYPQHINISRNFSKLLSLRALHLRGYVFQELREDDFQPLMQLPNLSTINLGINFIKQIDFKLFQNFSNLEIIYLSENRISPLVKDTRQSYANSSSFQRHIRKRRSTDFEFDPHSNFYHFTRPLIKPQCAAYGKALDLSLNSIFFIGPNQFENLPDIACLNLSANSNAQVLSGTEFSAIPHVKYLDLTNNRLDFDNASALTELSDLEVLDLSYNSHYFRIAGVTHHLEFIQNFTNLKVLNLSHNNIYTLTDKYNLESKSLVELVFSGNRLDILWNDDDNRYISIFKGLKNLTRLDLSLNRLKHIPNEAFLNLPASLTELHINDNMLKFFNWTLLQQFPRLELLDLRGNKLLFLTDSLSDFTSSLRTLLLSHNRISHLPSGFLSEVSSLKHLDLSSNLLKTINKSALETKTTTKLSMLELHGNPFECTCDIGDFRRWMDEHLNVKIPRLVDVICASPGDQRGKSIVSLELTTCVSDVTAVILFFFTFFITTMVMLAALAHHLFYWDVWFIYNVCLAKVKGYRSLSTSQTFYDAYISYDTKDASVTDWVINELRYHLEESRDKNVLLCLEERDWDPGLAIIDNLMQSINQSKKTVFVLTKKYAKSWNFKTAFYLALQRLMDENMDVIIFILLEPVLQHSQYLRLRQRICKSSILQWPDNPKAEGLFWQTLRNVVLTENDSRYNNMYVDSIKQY
Sequence of human TLR7 (Q9NYK1 27-1049): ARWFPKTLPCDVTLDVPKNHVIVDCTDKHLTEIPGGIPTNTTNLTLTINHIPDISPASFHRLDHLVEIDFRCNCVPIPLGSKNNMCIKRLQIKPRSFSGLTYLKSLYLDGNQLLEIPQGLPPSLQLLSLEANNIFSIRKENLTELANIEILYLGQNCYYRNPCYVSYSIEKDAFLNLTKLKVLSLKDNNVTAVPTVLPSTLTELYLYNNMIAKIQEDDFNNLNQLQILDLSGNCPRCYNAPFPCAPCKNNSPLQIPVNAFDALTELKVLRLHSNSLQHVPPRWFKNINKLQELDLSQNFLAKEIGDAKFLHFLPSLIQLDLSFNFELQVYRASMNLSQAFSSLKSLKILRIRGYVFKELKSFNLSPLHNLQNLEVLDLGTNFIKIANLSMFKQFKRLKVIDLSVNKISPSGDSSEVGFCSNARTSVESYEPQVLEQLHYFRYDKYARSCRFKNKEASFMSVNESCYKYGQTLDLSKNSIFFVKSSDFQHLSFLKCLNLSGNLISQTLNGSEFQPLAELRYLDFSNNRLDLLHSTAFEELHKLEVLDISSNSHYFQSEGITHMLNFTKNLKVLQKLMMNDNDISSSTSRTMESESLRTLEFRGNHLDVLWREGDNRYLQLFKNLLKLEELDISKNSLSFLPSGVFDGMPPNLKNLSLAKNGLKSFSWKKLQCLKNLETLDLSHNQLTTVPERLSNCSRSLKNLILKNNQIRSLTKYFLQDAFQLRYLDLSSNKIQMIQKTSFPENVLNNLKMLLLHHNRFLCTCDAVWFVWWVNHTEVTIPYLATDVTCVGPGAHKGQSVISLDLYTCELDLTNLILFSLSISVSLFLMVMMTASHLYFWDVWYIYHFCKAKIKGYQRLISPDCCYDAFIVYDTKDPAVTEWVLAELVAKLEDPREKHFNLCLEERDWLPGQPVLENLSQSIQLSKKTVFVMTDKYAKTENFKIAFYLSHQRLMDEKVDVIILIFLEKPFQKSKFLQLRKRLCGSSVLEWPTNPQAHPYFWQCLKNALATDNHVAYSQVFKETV
Sequence of human TLR9 (Q9NR96 26-1032): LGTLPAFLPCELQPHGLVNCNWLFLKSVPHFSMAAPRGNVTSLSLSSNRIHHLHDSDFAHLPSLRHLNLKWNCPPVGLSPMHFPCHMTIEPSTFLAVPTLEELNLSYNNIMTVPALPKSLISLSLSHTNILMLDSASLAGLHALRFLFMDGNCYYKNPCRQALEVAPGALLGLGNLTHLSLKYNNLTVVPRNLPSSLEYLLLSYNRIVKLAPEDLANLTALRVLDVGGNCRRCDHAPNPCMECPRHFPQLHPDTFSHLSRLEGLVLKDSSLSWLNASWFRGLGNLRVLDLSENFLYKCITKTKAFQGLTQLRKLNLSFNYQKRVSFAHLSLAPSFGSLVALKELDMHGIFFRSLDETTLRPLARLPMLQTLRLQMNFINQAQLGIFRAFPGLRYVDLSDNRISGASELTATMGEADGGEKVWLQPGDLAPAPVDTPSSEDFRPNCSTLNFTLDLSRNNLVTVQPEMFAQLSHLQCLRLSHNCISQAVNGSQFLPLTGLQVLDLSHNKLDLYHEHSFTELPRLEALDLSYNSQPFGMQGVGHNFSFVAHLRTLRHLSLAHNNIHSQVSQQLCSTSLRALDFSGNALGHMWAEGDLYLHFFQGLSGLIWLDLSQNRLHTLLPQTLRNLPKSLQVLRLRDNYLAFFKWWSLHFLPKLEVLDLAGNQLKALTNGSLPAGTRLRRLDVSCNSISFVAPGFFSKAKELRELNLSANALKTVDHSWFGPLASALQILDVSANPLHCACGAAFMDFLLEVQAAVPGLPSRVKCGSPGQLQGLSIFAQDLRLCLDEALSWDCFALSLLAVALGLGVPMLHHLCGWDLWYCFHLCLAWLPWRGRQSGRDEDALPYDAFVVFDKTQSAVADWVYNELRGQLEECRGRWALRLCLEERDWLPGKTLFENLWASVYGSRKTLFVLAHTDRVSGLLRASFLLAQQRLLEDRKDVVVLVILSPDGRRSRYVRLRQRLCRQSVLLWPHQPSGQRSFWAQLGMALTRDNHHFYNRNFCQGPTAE

Take `CC(C)c1c(-c2cc(CO)c3ncnn3c2)[nH]c2ccc(N3CCC(NCC#N)CC3)nc12` [Example 83]: the half-maximal inhibitory concentration (IC50) in assay [1] stood at 5440 nM; in assay [2], 6.9 nM; in assay [3], 3.6 nM.

Take `CC(C)c1c(-c2cc(CO)c3ncnn3c2)[nH]c2ccc(N3CCC(NCC(=O)N(C)C)CC3)nc12` [Example 84]: the IC50 was greater than 50000 nM in assay [1], greater than 3120 nM in assay [2] and 2200 nM in assay [3].

On to `CC(C)c1c(-c2cc(CO)c3ncnn3c2)[nH]c2ccc(N3CCC(NCC(=O)N(C)C)CC3)nc12` [Example 85], for which the results for the IC50 in assay [1], in assay [2] and in assay [3] were 5180 nM, 5.8 nM and 1.8 nM, respectively.

For `Cc1c(-c2[nH]c3ccc(N4CCCC(NC5COC5)C4)nc3c2C(C)C)cn2ncnc2c1C` (stereo not drawn) [Example 86], the IC50 was greater than 50000 nM in assay [1], 2.9 nM in assay [2] and 7.5 nM in assay [3].

For `Cc1c(-c2[nH]c3ccc(N4CCCC(NCC5(S(C)(=O)=O)CC5)C4)nc3c2C(C)C)cn2ncnc2c1C` (stereo not drawn) [Example 87], the figures for the IC50 in assay [1], in assay [2] and in assay [3] were greater than 50000 nM, 0.58 nM and 3.5 nM, respectively.

On to `Cc1cc(-c2[nH]c3ccc(N4CCNCC4)nc3c2C(C)C)cn2ncnc12` [Example 88], for which the IC50 in assay [1] is 3600 nM; in assay [2], 91 nM; in assay [3], 68 nM.

In the case of `COc1cc(-c2[nH]c3ccc(N4CCNCC4)nc3c2C(C)C)cn2ncnc12` [Example 89], the IC50 in assay [1] came to 3260 nM; in assay [2], 0.59 nM; in assay [3], 0.51 nM.

Take `COc1cc(-c2[nH]c3ccc(N4CCN(C(=O)CN(C)C)CC4)nc3c2C(C)C)cn2ncnc12` [Example 90]: the figures for the IC50 in assay [1], in assay [2] and in assay [3] were 5000 nM, 4.2 nM and 0.57 nM, respectively.

As for `COc1cc(-c2[nH]c3ccc(N4CCN(C)CC4)nc3c2C(C)C)cn2ncnc12` [Example 91], the IC50 in assay [1] is 6310 nM; in assay [2], 0.53 nM; in assay [3] it was 0.68 nM.

On to `COc1cc(-c2[nH]c3ccc(N4CCN(C(C)C)CC4)nc3c2C(C)C)cn2ncnc12` [Example 92], for which the IC50 in assay [1] was 3990 nM; in assay [2], 0.78 nM; in assay [3], 0.87 nM.

`COc1cc(-c2[nH]c3ccc(N4CCN(C5COC5)CC4)nc3c2C(C)C)cn2ncnc12` [Example 93]: the IC50 was 35000 nM in assay [1], 7.2 nM in assay [2] and 5.3 nM in assay [3].

On to `COc1cc(-c2[nH]c3ccc(N4CCN(CC#N)CC4)nc3c2C(C)C)cn2ncnc12` [Example 94], for which the values for the IC50 in assay [1], in assay [2] and in assay [3] were 9350 nM, 1.4 nM and 1 nM, respectively.

With `COc1cc(-c2[nH]c3ccc(N4CCN(CCS(C)(=O)=O)CC4)nc3c2C(C)C)cn2ncnc12` [Example 95], the IC50 is greater than 50000 nM in assay [1], 3.6 nM in assay [2] and 4.9 nM in assay [3].

With `Cc1c(-c2[nH]c3ccc(N4CCN(C)CC4)nc3c2C(C)C)cn2ncnc2c1C` [Example 96, 6-(3-isopropyl-5-(4-methylpiperazin-1-yl)-1H-pyrrolo[3,2-b]pyridin-2-yl)-7,8-dimethyl-[1,2,4]triazolo[1,5-a]pyridine], the IC50 in assay [1] is 9430 nM; in assay [2], 0.28 nM; in assay [3], 1.5 nM.

On to `Cc1c(-c2[nH]c3ccc(N4CCN(CC5(C)COC5)CC4)nc3c2C(C)C)cn2ncnc2c1C` [Example 97], for which the 50% inhibitory concentration (IC50) in assay [1] was greater than 50000 nM; in assay [2], 4.1 nM; in assay [3] it was 28 nM.

As to `Cc1c(-c2[nH]c3ccc(N4CCN(C(=O)CCN(C)C)CC4)nc3c2C(C)C)cn2ncnc2c1C` [Example 98], the IC50 in assay [1] is 5230 nM; in assay [2], 0.72 nM; in assay [3], 0.74 nM.

For `COc1cc(-c2[nH]c3ccc(N4CCN(C(=O)CCN(C)C)CC4)nc3c2C(C)C)cn2ncnc12` [Example 99], the IC50 was determined as 4300 nM in assay [1], 2.9 nM in assay [2] and 0.51 nM in assay [3].

On to `Cc1c(-c2[nH]c3ccc(N4CCN(C(C)C)CC4)nc3c2C(C)C)cn2ncnc2c1C` [Example 100], for which the IC50 in assay [1] is 6150 nM; in assay [2], 0.55 nM; in assay [3], 3.2 nM.

For `Cc1c(-c2[nH]c3ccc(N4CCN(C5CCOCC5)CC4)nc3c2C(C)C)cn2ncnc2c1C` [Example 101], the IC50 in assay [1] stood at 6400 nM; in assay [2] it was 0.25 nM; in assay [3], 3.7 nM.

With `COc1cc(-c2[nH]c3ccc(N4CCN(CC5(C)COC5)CC4)nc3c2C(C)C)cn2ncnc12` [Example 102], the IC50 is greater than 50000 nM in assay [1], 5.1 nM in assay [2] and 12 nM in assay [3].

Regarding `COc1cc(-c2[nH]c3ccc(N4CCN(C5CCOCC5)CC4)nc3c2C(C)C)cn2ncnc12` [Example 104], the IC50 came out at 4160 nM in assay [1], 0.75 nM in assay [2] and 2.3 nM in assay [3].

For the compound `Cc1c(-c2[nH]c3ccc(N4CCN(CC(C)(C)O)CC4)nc3c2C(C)C)cn2ncnc2c1C` [Example 105, 1-(4-(2-(7,8-dimethyl-[1,2,4]triazolo[1,5-a]pyridin-6-yl)-3-isopropyl-1H-pyrrolo[3,2-b]pyridin-5-yl)piperazin-1-yl)-2-methylpropan-2-ol], the IC50 amounted to 9240 nM in assay [1], 0.15 nM in assay [2] and 3.9 nM in assay [3].

Regarding `COc1cc(-c2[nH]c3ccc(N4CCN(CC(C)(C)O)CC4)nc3c2C(C)C)cn2ncnc12` [Example 106], the IC50 in assay [1] was found to be 7780 nM; in assay [2], 0.28 nM; in assay [3], 2.2 nM.

`COc1cc(-c2[nH]c3ccc(N4CCN(CC5CCOC5)CC4)nc3c2C(C)C)cn2ncnc12` (stereo not drawn) [Example 107]: the IC50 in assay [1] worked out at 5630 nM; in assay [2], 0.37 nM; in assay [3], 2.2 nM.

Take `COc1cc(-c2[nH]c3ccc(N4CCN(C5CCC5)CC4)nc3c2C(C)C)cn2ncnc12` [Example 108]: the figures for the IC50 in assay [1], in assay [2] and in assay [3] were 3510 nM, 0.99 nM and 2.5 nM, respectively.

Take `COc1cc(-c2[nH]c3ccc(N4CCN(CC(C)C)CC4)nc3c2C(C)C)cn2ncnc12` [Example 109]: the IC50 in assay [1] amounted to 8010 nM; in assay [2], 1.3 nM; in assay [3], 3.6 nM.

As to `COc1cc(-c2[nH]c3ccc(N4CCN(CCC(C)C)CC4)nc3c2C(C)C)cn2ncnc12` [Example 110], the values for the IC50 in assay [1], in assay [2] and in assay [3] were 4540 nM, 0.76 nM and 1.9 nM, respectively.

On to `COCC(C)N1CCN(c2ccc3[nH]c(-c4cc(OC)c5ncnn5c4)c(C(C)C)c3n2)CC1` (stereo not drawn) [Example 112], for which the IC50 in assay [1] amounted to 6010 nM; in assay [2] it was 1.2 nM; in assay [3] it was 2.2 nM.

Take `COc1cc(-c2[nH]c3ccc(N4CCN(C5CCC(O)CC5)CC4)nc3c2C(C)C)cn2ncnc12` (stereo not drawn) [Example 113]: the figures for the IC50 in assay [1], in assay [2] and in assay [3] were 3360 nM, 0.95 nM and 1.4 nM, respectively.

For `COc1cc(-c2[nH]c3ccc(N4CCN(CCC(C)(C)C)CC4)nc3c2C(C)C)cn2ncnc12` [Example 114], the figures for the IC50 in assay [1], in assay [2] and in assay [3] were 7590 nM, 1.8 nM and 4.7 nM, respectively.

On to `CCCCN1CCN(c2ccc3[nH]c(-c4cc(OC)c5ncnn5c4)c(C(C)C)c3n2)CC1` [Example 115], for which the IC50 in assay [1] is 3480 nM; in assay [2], 0.49 nM; in assay [3], 1.2 nM.

`COc1cc(-c2[nH]c3ccc(N4CCN(CCC(F)(F)F)CC4)nc3c2C(C)C)cn2ncnc12` [Example 116]: the IC50 in assay [1] came to 35600 nM; in assay [2], 5 nM; in assay [3], 9.7 nM.

Turning to `COc1cc(-c2[nH]c3ccc(N4CCN(C(C)CO)CC4)nc3c2C(C)C)cn2ncnc12` (stereo not drawn) [Example 117], the IC50 in assay [1] was determined as 5640 nM; in assay [2], 0.81 nM; in assay [3], 1.4 nM.

As to `COc1cc(-c2[nH]c3ccc(N4CCN(C(C)CCO)CC4)nc3c2C(C)C)cn2ncnc12` (stereo not drawn) [Example 118], the IC50 in assay [1] was 5580 nM; in assay [2], 0.86 nM; in assay [3], 1.8 nM.

As for `CCN1CCN(c2ccc3[nH]c(-c4cc(OC)c5ncnn5c4)c(C(C)C)c3n2)CC1` [Example 119], the results for the IC50 in assay [1], in assay [2] and in assay [3] were 14100 nM, 0.96 nM and 1.8 nM, respectively.

On to `COc1cc(-c2[nH]c3ccc(N4CCN(CC5CC5)CC4)nc3c2C(C)C)cn2ncnc12` [Example 120], for which the concentration for half-maximal inhibition (IC50) turned out to be 5490 nM in assay [1], 0.6 nM in assay [2] and 2.3 nM in assay [3].

For the compound `COc1cc(-c2[nH]c3ccc(N4CCN(C5CCN(C(C)=O)CC5)CC4)nc3c2C(C)C)cn2ncnc12` [Example 121], the results for the IC50 in assay [1], in assay [2] and in assay [3] were 6350 nM, 0.8 nM and 3.4 nM, respectively.

For the compound `CC(C)c1c(-c2cn(C)c3ncncc23)[nH]c2ccc(N3CCNCC3)nc12` [Example 122], the results for the IC50 in assay [1], in assay [2] and in assay [3] were 7250 nM, 1.1 nM and 1.7 nM, respectively.

With `CC(C)c1c(-c2cn(C)c3ncncc23)[nH]c2ccc(N3CCN(C(=O)CN(C)C)CC3)nc12` [Example 123], the figures for the IC50 in assay [1], in assay [2] and in assay [3] were 8650 nM, 6.3 nM and 1.9 nM, respectively.

In the case of `CC(C)c1c(-c2cn(C)c3ncncc23)[nH]c2ccc(N3CCN(C(=O)CCN(C)C)CC3)nc12` [Example 124], the IC50 was 5790 nM in assay [1], 4.7 nM in assay [2] and 1.2 nM in assay [3].

On to `CC(C)c1c(-c2cn(C)c3ncncc23)[nH]c2ccc(N3CCN(C)CC3)nc12` [Example 125], for which the IC50 worked out at 6540 nM in assay [1], 0.66 nM in assay [2] and 2.6 nM in assay [3].

`CC(C)c1c(-c2cn(C)c3ncncc23)[nH]c2ccc(N3CCN(C(C)C)CC3)nc12` [Example 126]: the IC50 was 6120 nM in assay [1], 1.5 nM in assay [2] and 5.9 nM in assay [3].
